These results are taken from the Kinase Knowledgebase extract (Sharma et al. 2016).

Values joined by “and” are separate entries in the source; they are usually repeats but may differ in a detail not shown here. Equal values may be shown once.

Chain of PIK3CG (human) (P48736 whole entry, looked up): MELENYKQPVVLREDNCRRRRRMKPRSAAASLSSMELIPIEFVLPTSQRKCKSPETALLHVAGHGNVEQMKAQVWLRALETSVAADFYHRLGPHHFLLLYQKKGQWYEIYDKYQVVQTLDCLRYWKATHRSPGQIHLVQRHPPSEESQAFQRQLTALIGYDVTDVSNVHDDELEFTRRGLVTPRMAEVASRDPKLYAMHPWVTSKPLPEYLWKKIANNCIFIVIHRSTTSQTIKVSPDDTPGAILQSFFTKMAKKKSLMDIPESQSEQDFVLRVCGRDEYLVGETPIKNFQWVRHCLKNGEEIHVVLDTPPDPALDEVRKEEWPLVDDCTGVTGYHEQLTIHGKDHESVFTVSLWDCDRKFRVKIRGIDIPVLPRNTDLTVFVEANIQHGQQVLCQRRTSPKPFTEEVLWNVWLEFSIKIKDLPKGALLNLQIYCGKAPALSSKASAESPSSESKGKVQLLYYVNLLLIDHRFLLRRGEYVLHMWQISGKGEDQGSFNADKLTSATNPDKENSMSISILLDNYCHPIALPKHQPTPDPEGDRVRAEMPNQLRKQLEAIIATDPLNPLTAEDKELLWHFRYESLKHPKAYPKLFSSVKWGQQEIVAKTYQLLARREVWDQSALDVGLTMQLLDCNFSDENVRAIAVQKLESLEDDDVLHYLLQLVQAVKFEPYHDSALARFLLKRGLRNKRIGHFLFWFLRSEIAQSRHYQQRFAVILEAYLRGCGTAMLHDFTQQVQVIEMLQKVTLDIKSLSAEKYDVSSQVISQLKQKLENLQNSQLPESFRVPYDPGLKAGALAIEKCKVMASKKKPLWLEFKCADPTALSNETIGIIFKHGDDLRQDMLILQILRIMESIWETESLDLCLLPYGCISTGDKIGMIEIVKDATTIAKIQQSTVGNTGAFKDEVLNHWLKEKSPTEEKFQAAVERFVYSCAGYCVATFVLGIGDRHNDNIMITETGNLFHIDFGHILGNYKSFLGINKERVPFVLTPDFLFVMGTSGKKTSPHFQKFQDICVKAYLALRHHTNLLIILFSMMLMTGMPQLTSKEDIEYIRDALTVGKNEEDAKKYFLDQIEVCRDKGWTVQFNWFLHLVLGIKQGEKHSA

One test addresses PIK3CG (human) (UniProt P48736). Briefly: Inhibition of PIK3CG Kinase Assay.
For `O=C(NC1=Nc2cc(O)ccc2C2=NCCN12)c1cccnc1`, the IC50 (commonly the concentration at which inhibition is half-maximal) lay in the range of 0.1 to 0.5 µM.

The compound `COc1c(OCCCC(=O)N2CCOCC2)ccc2c1N=C(/C=C(\O)c1cccnc1)N1CCN=C21` gave an IC50 of at most 0.1 µM.

As for `COc1c(OCCCC(=O)O)ccc2c1N=C(/C=C(\O)c1cccnc1)N1CCN=C21`, the IC50 was at most 0.1 µM.

`O=C(NC1=Nc2cc(OCCn3cccc3)ccc2C2=NCCN12)c1cccnc1` displayed an IC50 of 0.1 to 0.5 µM.

As for `COc1cc2c(cc1OC)C1=NCCN1C(/C=C(\O)c1cccnc1)=N2`, the IC50 was at most 0.1 µM.

In the case of `CC(=O)Nc1ccc(C(=O)NC2=Nc3cc(N4CCOCC4)ccc3C3=NCCN23)cn1`, the IC50 is at most 0.1 µM.

Take `Cc1ccncc1C(=O)NC1=Nc2ccccc2C2=NCCN12`: the IC50 was 0.1 to 0.5 µM.

`COc1cc(OC)c2c(c1)C1=NCCN1C(NC(=O)c1ccc(NC(C)=O)nc1)=N2` came in with an IC50 of 0.1 to 0.5 µM.

`COc1cc2c(cc1OC)C1=NCCN1C(/C=C(\O)c1sc(C)nc1C)=N2` came in with an IC50 of at most 0.1 µM.

The compound `O=C(NC1=Nc2ccc(Br)cc2C2=NCCN12)c1cccnc1` registered an IC50 of 0.1 to 0.5 µM.

The compound `O=C(NC1=Nc2ccc(Cl)cc2C2=NCCN12)c1cccnc1` gave an IC50 of at most 0.1 µM.

Regarding `O/C(=C\C1=Nc2c(cccc2C(F)(F)F)C2=NCCN12)c1cccnc1`, the IC50 was in the range of 0.1 to 0.5 µM.

Compound `COc1cc2c(c(OC)c1C)N=C(NC(=O)c1ccc3[nH]cnc3c1)N1CCN=C21` displayed an IC50 of 0.1 to 0.5 µM.

`CCn1nc(C)cc1C(=O)NC1=Nc2ccccc2C2=NCCN12`: the IC50 is 0.1 to 0.5 µM.

In turn, `O=C(NC1=Nc2ccccc2C2=NCCN12)c1cccnc1` had an IC50 of at most 0.1 µM.

`O=C(NC1=Nc2cc(Cl)ccc2C2=NCCN12)c1cccnc1`: the IC50 lay in the range of 0.1 to 0.5 µM.

Consider `COc1cc2c(c(OC)c1C)N=C(/C=C(\O)c1cccnc1)N1CCN=C21`, for which the IC50 was at most 0.1 µM.

`COc1c(OCC(=O)N(C)C)ccc2c1N=C(/C=C(\O)c1cccnc1)N1CCN=C21` came in with an IC50 of at most 0.1 µM.

For the compound `O/C(=C\C1=Nc2cc(N3CCOCC3)ccc2C2=NCCN12)c1cccnc1`, the IC50 lay in the range of 0.1 to 0.5 µM.

For `Cc1ccc(C(=O)NC2=Nc3ccccc3C3=NCCN23)c(Cl)n1`, the IC50 lay in the range of 0.5 to 2 µM.

`COc1cccc2c1N=C(NC(=O)c1cc3cccnc3nc1C)N1CCN=C21` yielded an IC50 of at most 0.1 µM.

`O=C(NC1=Nc2ccccc2C2=NCCN12)c1ccc(Cl)cc1` yielded an IC50 above 2 µM.

As for `Cc1ncccc1C(=O)NC1=Nc2ccccc2C2=NCCN12`, the IC50 was at most 0.1 µM.

On to `CC(=O)Nc1ccc(/C(O)=C/C2=Nc3cc(CN4CCOCC4)ccc3C3=NCCN23)cn1`, for which the IC50 is 0.1 to 0.5 µM.

Consider `O=C(NC1=Nc2ccccc2C2=NCCN12)c1cccc([N+](=O)[O-])c1`, for which the IC50 is above 2 µM.

`CS(=O)(=O)c1ccc(C(=O)NC2=Nc3ccccc3C3=NCCN23)cc1` came in with an IC50 above 2 µM.

The compound `Cc1nc2ccccn2c1C(=O)NC1=Nc2ccccc2C2=NCCN12` showed an IC50 of 0.1 to 0.5 µM.

The compound `C=Cc1ccc2c(c1)C1=NCCN1C(NC(=O)c1cccnc1)=N2` displayed an IC50 of 0.1 to 0.5 µM.

Regarding `Cc1nc(N)ccc1C(=O)NC1=Nc2ccccc2C2=NCCN12`, the IC50 lay in the range of 0.1 to 0.5 µM.

`O=C(NC1=Nc2cc(N3CCOCC3)ccc2C2=NCCN12)c1cncc(O)c1` yielded an IC50 of at most 0.1 µM.

`O=C(NC1=Nc2ccccc2C2=NCCN12)c1ccc(-n2ccnc2)cc1`: the IC50 was above 2 µM.

In turn, `CNc1ccc(C(=O)NC2=Nc3ccccc3C3=NCCN23)cn1` registered an IC50 of 0.1 to 0.5 µM.

Regarding `Cc1ccc2c(c1)N=C(NC(=O)c1cccs1)N1CCN=C21`, the IC50 was 0.1 to 0.5 µM.

For the compound `COc1ccc2c(c1)N=C(NC(=O)c1cccnc1)N1CCN=C21`, the IC50 lay within 0.1 to 0.5 µM.

`COc1ccc2c(c1)C1=NCCN1C(/C=C(\O)c1cccnc1)=N2` showed an IC50 of 0.1 to 0.5 µM.

`COc1cccc2c1N=C(NC(=O)c1cc3cccnc3nc1C(F)(F)F)N1CCN=C21` displayed an IC50 of at most 0.1 µM.

The compound `COc1ccc2c(c1OC)N=C(/C=C(\O)c1cccnc1)N1CCN=C21` displayed an IC50 of at most 0.1 µM.

Take `O=C(NC1=Nc2ccccc2C2=NCCN12)c1sccc1Cl`: the IC50 lay within 0.1 to 0.5 µM.

In turn, `Cc1ccc2c(c1)C1=NCCN1C(/C=C(\O)c1cccnc1)=N2` came in with an IC50 of 0.1 to 0.5 µM.

In the case of `COc1ccc2c(c1)N=C(NC(=O)c1ccc3[nH]cnc3c1)N1CCN=C21`, the IC50 is at most 0.1 µM.

`O=C(O)CCc1ccc2c(n1)N=C(/C=C(\O)c1cccnc1)N1CCN=C21` displayed an IC50 of 0.1 to 0.5 µM.

For the compound `O=C(NC1=Nc2c(cccc2C(F)(F)F)C2=NCCN12)c1ccc2[nH]cnc2c1`, the IC50 is at most 0.1 µM.

The compound `CC(=O)Nc1ccc(C(=O)NC2=Nc3ccccc3C3=NCCN23)cn1` had an IC50 of at most 0.1 µM.

`Cc1nc2ncccc2cc1C(=O)NC1=Nc2ccccc2C2=NCCN12` returned an IC50 of 0.1 to 0.5 µM.

`COc1c(C)ccc2c1N=C(/C=C(\O)c1ccc(NC(C)=O)nc1)N1CCN=C21` returned an IC50 of at most 0.1 µM.

In a further test the target is PIK3CB (UniProt P42338). Briefly: Inhibition of PIK3CB Kinase Assay.
Chain of PIK3CB (P42338 whole entry, looked up): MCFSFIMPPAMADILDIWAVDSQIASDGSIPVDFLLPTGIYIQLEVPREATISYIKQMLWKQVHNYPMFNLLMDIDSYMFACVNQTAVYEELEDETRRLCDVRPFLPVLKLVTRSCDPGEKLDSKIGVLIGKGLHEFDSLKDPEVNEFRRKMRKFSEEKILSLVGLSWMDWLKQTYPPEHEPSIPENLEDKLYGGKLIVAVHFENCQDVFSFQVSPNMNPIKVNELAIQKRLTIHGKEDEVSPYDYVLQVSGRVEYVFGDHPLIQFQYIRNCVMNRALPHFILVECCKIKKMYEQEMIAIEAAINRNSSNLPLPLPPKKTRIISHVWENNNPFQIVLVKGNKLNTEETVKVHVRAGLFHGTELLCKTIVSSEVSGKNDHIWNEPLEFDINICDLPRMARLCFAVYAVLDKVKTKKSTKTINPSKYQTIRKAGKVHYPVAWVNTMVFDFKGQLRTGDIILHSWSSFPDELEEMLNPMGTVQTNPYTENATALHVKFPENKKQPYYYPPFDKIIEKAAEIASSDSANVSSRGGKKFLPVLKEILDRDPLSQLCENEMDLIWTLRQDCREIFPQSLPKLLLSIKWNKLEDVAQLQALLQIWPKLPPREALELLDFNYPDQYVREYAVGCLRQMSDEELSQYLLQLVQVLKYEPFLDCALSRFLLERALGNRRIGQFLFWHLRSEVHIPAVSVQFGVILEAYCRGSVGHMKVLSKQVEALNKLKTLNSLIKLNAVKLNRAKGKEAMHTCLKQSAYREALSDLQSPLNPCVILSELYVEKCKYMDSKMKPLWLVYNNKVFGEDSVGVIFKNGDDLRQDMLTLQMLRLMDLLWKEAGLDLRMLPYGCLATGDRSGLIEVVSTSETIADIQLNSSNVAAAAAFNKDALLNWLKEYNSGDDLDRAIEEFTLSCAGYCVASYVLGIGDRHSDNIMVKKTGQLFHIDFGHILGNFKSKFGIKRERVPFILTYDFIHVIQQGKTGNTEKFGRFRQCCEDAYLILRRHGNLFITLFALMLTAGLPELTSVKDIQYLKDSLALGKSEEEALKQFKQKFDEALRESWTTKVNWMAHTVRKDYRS
`O=C(NC1=Nc2cc(O)ccc2C2=NCCN12)c1cccnc1` had an IC50 of 0.5 to 2 µM.

With `COc1c(OCCCC(=O)N2CCOCC2)ccc2c1N=C(/C=C(\O)c1cccnc1)N1CCN=C21`, the IC50 fell in the range of 0.1 to 0.5 µM.

`COc1c(OCCCC(=O)O)ccc2c1N=C(/C=C(\O)c1cccnc1)N1CCN=C21` gave an IC50 of 0.1 to 0.5 µM.

The compound `O=C(NC1=Nc2cc(OCCn3cccc3)ccc2C2=NCCN12)c1cccnc1` came in with an IC50 of 0.1 to 0.5 µM.

As to `COc1cc2c(cc1OC)C1=NCCN1C(/C=C(\O)c1cccnc1)=N2`, the IC50 fell in the range of 0.5 to 2 µM.

`CC(=O)Nc1ccc(C(=O)NC2=Nc3cc(N4CCOCC4)ccc3C3=NCCN23)cn1`: the IC50 is 0.5 to 2 µM and 0.1 to 0.5 µM.

The compound `COc1c(O)ccc2c1N=C(/C=C(\O)c1cccnc1)N1CCN=C21` showed a 50% inhibitory concentration (IC50) of 0.5 to 2 µM.

Regarding `O=C(NC1=Nc2ccccc2C2=NCCN12)c1cccnc1`, the IC50 lay within 0.1 to 0.5 µM.

As to `COC(=O)CCCOc1ccc2c(c1OC)N=C(/C=C(\O)c1cccnc1)N1CCN=C21`, the IC50 lay within 0.5 to 2 µM.
